In article PMC12024912, “Druggability Studies of Benzene Sulfonamide Substituted Diarylamide (E3) as a Novel Diuretic” (Biomedicines, 2025):
Read-outs that look alike come from different tables or passages of the source.

Experiments:
[1] = molecular target: T1, UT-B (Mus musculus, UniProt Q8VHL0); assay: Erythrocyte lysis assay for UT-B inhibition, mouse erythrocytes; format: cell-based
T1 construct: endogenous in cells; host or cells: erythrocytes from wild-type C57BL/6 mice
T1 sequence (Q8VHL0 1-384): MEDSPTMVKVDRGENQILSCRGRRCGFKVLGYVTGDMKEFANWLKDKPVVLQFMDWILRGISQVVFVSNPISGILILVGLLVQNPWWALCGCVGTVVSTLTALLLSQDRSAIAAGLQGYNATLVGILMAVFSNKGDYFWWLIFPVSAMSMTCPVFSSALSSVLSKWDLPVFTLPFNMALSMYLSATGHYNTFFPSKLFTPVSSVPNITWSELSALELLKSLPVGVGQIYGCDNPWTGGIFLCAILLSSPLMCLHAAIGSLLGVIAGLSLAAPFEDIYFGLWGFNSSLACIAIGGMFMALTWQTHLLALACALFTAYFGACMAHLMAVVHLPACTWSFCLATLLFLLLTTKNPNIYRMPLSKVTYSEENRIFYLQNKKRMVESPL
Protocol: The erythrocyte lysis assay was modified from a method described previously. Erythrocytes obtained from veins were diluted to a hematocrit value of 2% in hyperosmolar PBS containing 1.25 mol/L urea and 5 mmol/L glucose and incubated at r.t. for 2 h. Then, 99 μL erythrocyte suspension from a reservoir was added to each well of a 96-well round-bottom microplate, then 1 μL of the testing compound (500, 125, 31.25, 7.81, 1.95, 0.488, 0.122, 0.031, 0.0076 μmol/L dissolved in DMSO) was added to erythrocyte suspension and shook it up with microoscillator for 1 min. Following 5 min incubation, 20 μL erythrocyte suspension was transferred into 96-well black microplates preloaded with 180 μL isotonic PBS (10 mM, urea-free). Erythrocyte lysis was monitored at 710 nm optical density (OD710) for 6 min, with lysis rates calculated using control values from the same plate as Equation (1):Lysis (%) = 100 × (Aneg − Atest)/(Aneg − Apos)(1) where Atest is the absorbance value from the test well, Aneg is from a negative no-lysis control well, and Apos is from a positive full-lysis control.

[2] = molecular target: T2, rat UT-B (Rattus norvegicus, UniProt P97689); assay: Transwell assay of UT-B inhibition in UT-B-MDCK cells; format: cell-based; conditions: read-out: IC50 against UT-B-mediated urea permeability
T2 construct: expressed in transfected cells
T2 sequence (P97689 1-384): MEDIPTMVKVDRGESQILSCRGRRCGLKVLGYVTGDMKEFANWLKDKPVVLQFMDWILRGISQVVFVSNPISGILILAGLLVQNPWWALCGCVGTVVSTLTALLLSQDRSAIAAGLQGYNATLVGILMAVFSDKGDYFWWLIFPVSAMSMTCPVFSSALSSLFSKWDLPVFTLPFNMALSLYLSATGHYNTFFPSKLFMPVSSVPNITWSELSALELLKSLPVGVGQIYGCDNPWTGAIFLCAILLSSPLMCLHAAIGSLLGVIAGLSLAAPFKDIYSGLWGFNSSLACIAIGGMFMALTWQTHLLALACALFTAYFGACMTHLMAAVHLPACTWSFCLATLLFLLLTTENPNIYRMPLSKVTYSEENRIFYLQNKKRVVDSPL
Protocol: MDCK cells stably expressing rat UT-A1 or UT-B were cultured in DMEM supplemented with 10% FBS, and the mRNA levels of UT-A1 and UT-B were measured in our previous research. Urea flux was assessed according to previously established methods. MDCK cells (2 × 10^5 cells/cm^2) were grown on 12 mm collagen-coated Costar Transwell inserts (0.4 μm pore size, Corning) for 4 d at 37 °C in the presence of 5% CO2. Once the cells on the apical side formed a tight monolayer (transepithelial resistance 1 kΩ/cm^2), PBS (pH = 7.4, containing 10 μmol/L forskolin) with E3 or DMSO was added to the top (0.25 mL) and bottom (1 mL) compartments, and the cultures were incubated in the absence of urea for 30 min at 37 °C. As UT-B is located in the plasma membrane while UT-A1 resides in the cytoplasm, forskolin was used to stimulate the translocation of UT-A1 from the cytoplasm to the membrane for urea transport. Subsequently, the solution in the bottom compartment was replaced with PBS (pH 7.4, containing 10 μmol/L forskolin and E3 or DMSO) supplemented with 15 mmol/L urea. Apical fluid samples (5 μL) were collected at 0, 1, 3, 5, 10, 15, 20, 30, 40, 50, and 60 min. The samples were subjected to an assay for urea (Urea Colorimetric Assay Kit (Diacetyl Oxime Method), Elabscience, Wuhan, China) according to the kit procedure. Then, the inhibition rate was calculated as described previously.

[3] = system: mice; assay: Long-term (7 d) diuretic activity in mice; format: in vivo, mouse
Protocol: In a single-dose administration experiment, male wild-type (WT) mice, UT-B^-/- mice, UT-A1^-/- mice, or SD rats were adapted in metabolic cages for 3 d. Food and water were provided ad libitum throughout the experiment. Prior to administration, the bladder of each animal was emptied through gentle abdominal massage, and urine was collected from the metabolic cages every 2 h. Compound E3, suspended in 0.5% CMC-Na at an appropriate concentration, was administered intragastric gavage to the mice or rats (0.16, 0.8, 4, or 20 mg/kg). Vehicle control comprised 0.5% (w/v) CMC-Na. Urinary parameters were determined through the following: volume: Gravimetric analysis (1 g/mL density assumption); osmolality: freezing-point osmometry (Micro-osmometer, […] Associates, Norwood, MA, USA); and urea: diacetyl oxime colorimetry (QuantiChrom® kit, Elabscience, Wuhan, China). In long-term (7 d) diuretic activity experiments, male WT mice, UT-B^-/- mice, UT-A1^-/- mice, and SD rats were acclimatized in metabolic cages (Ugo Basile, Comerio, VA, Italy) for 3 d. Food and water were provided ad libitum throughout the experiment. E3 was suspended in 0.5% CMC-Na and administered at a dose of 4 or 20 mg/kg by intragastric gavage. Urine was collected by metabolic cages every 24 h. Body weight was measured daily. At 4 h after the final administration, a blood sample was obtained by heart puncture. Inner medulla and outer medulla tissue homogenates were prepared, and the supernatant after centrifugation was analyzed for solute concentration and osmolality. Urinary osmolality and urea concentration were measured as above. Serum Na^+, K^+, and Cl^- were measured in a clinical chemistry laboratory, while serum creatinine, ALT, and AST were measured through specific reagent kits (NJJC Bio, Nanjing, China).

[4] = UT-B−/− mice, long-term treatment
[5] = mice, oral 20 mg/kg, consecutive administrations

Which results are given for CC(=O)c1ccc(C(=O)Nc2cccc(NS(=O)(=O)c3ccccc3)c2)o1 [Compound E3, 5-acetyl-N-(3-(phenylsulfonamido)phenyl)furan-2-carboxamide]?
maximum inhibition rate, mouse cells ([1]; erythrocyte lysis assay): approximately 100%; IC50 ([1]; erythrocyte lysis model, mouse, n = 3, means, read-out: IC50 (μM) Mouse): 0.05 µM; IC50 ([1]; red blood cell lysis assay, read-out: IC50 for UT-B-promoted urea transport, mice): 0.0477 µM; IC50 [2]: 58 nM; diuretic effect ([3]; UT-A1−/− mice, long-term treatment): no significant diuretic effect; urine osmolality [3, 4]: decreased; urine output [3, 4]: increased; excretion of non-urea solutes [3, 5]: no significant difference; urine osmolality [3, 5]: significantly decreased; urine output [3, 5]: significantly increased; urine urea concentration [3, 5]: significantly decreased
